Values quoted from earlier work, collected in US20240261238A1, “METHOD OF TREATING DRUG RESISTANT EPILEPSY” (ICAHN SCHOOL OF MEDICINE AT MOUNT SINAI, priority 2021, published 2024).

Assays:
[1] = 0.5 mg/kg intravenous infusion given over 40 minutes
[2] = intranasal, total dose
[3] = intranasal for treatment of pain vs intravenous ketamine studies in depression
NMDA receptors = settings: read-out: Ki for binding to NMDA receptors
[4] = iontophoretic patch, 33 men and women

## CNC1(c2ccccc2Cl)CCCCC1=O (racemic) [ketamine, 2-(2-chlorophenyl)-2-(methylamino)-cyclohexanone]
[1]
  duration of improvements in depression: up to 1 week
  serious adverse events: no serious adverse events
  time to improvements in depression post-injection: ≤ 2 h
other
  serious adverse events caused by IV administration: No serious adverse events
IV, euphoria, elevated BP, increased libido, perceptual disturbances
  time by which side effects typically abate post-infusion: ≤ 80 min
[2]
  dose at which mild adverse effects (dysphoria and/or hallucinations) can occur: greater than 50 mg
  dose usually required for mild adverse effects (dysphoria and/or hallucinations): greater than 100 mg
[3]
  intranasal plasma levels lower than in intravenous studies: 3-4 fold

## CN[C@@]1(c2ccccc2Cl)CCCCC1=O [R(−)]
NMDA receptors
  Ki: 1.1 µM

## CN[C@]1(c2ccccc2Cl)CCCCC1=O [S(+)-ketamine]
NMDA receptors
  Ki: 3.2 µM
[4]
  potency relative to racemic mixture of ketamine: two times more potent
